Test results from patent publication EP1985624A2, “Single step method of radiofluorination of biologically active compounds or biomolecules” (Bayer Schering Pharma Aktiengesellschaft, priority 2007, dated 2008).
*1 amine or outer side, *2 acyl side, *3 side chain or, on linkers, in order; H or OH if unused. Where a SMILES comes first, the peptide text is derived from it. [ ]: non-standard residue; d: D form. The star is where a group is joined. X3 = CC(C)[C@H](N[*:1])[C@H](O)CC(=O)[*:2]; Benzoyl(3-CN,4-F) = N#Cc1cc(C(=O)*)ccc1F; Benzoyl(3,4-F2) = O=C(c1ccc(F)c(F)c1)*; NMeH = CN[C@@H](Cc1c[nH]cn1)C(=O)O; X1 = CCC(C)C(CCC(=O)[*:2])N[*:1]; β3hI = CC[C@H](C)[C@H](N)CC(=O)O; Tle = CC(C)(C)[C@H](N)C(=O)O; β3hL = CC(C)C[C@H](N)CC(=O)O; Ava = NCCCCC(=O)O; βAla = NCCC(=O)O; Sar = CNCC(=O)O

Molecular target: T1, human bombesin 2 receptor (GRPR) (Homo sapiens, UniProt P30550)
T1 construct: using GRPR-containing cell membranes (Perkin Elmer); purchased Perkin Elmer
Experiment: competitive receptor-binding assay (scintillation proximity assay) with 125I-[Tyr4]-Bombesin
Details: not given
Experimental: In vitro binding affinity and specificity of Bombesin analogs for the human bombesin 2 receptor (GRPR) were assessed via a competitive receptor-binding assay using ^125I-[Tyr^4]-Bombesin (Perkin Elmer; specific activity 81.4 TBq/mmol) as GRPR-specific radioligand. The assay was performed based on the scintillation proximity assay (SPA) technology (Carpenter JW et al., Meth Mol Biol 2002; 190:31-49) using GRPR-containing cell membranes (Perkin Elmer) and wheat germ agglutinin (WGA)-coated PVT beads (Amersham Bioscience).
(§1) Briefly, GRPR-containing membranes and WGA-PVT beads were mixed in assay buffer (50 mM Tris/HCl pH 7.2, 5 mM MgCl2, 1 mM EGTA, Complete protease inhibitor (Roche Diagnostics GmbH) and 0.3% PEI) to give final concentrations of approximately 100 µg/ml protein and 40 mg/ml PVT-SPA beads. The ligand ^125I-[Tyr^4]-Bombesin was diluted to 0.5 nM in assay buffer. The test compounds were dissolved in DMSO to give 1 mM stock solutions Later on, they were diluted in assay buffer to 8 pM - 1.5 µM.
The assay was then performed as follows: First, 10 µl of compound solution to be tested for binding were placed in white 384 well plates (Optiplate-384, Perkin-Elmer). At next, 20 µl GRPR/WGA-PVT bead mixture and 20 µl of the ligand solution were added. After 90 minutes incubation at room temperature, another 50 µl of assay buffer were added, the plate sealed and centrifuged for 10 min at 520xg at room temperature. Signals were measured in a TopCount (Perkin Elmer) for 1 min integration time per well. The IC50 was calculated by nonlinear regression using the GraFit data analysis software (Erithacus Software Ltd.). Furthermore, the KI was calculated based on the IC50 for test compound as well as the KD and the concentration of the ligand ^125I-[Tyr^4]-Bombesin. Experiments were done with quadruple samples.
The Binding affinities measured for all the cold F-19 compounds are listed Table 2.
as §1, with “Lateron,” for “Later on,”

T1 sequence (P30550 whole entry): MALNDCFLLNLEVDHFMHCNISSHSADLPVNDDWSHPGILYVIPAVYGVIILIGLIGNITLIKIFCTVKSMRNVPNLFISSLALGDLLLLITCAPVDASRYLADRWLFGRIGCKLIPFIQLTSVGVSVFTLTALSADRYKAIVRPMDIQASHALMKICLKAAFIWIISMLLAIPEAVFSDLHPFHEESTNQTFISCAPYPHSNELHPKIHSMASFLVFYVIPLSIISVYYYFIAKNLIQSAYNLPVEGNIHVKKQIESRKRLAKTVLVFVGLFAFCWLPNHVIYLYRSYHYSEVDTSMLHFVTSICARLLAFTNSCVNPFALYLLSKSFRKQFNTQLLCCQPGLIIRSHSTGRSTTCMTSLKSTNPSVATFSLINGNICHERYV

Compound	Ki
CCC(C)C(CCC(=O)N[C@@H](CC(C)C)C(N)=O)NC(=O)[C@H](Cc1c[nH]cn1)NC(=O)CNC(=O)[C@@H](NC(=O)[C@H](C)NC(=O)[C@H](Cc1c[nH]c2ccccc12)NC(=O)[C@H](CCC(N)=O)NC(=O)CCCCNC(=O)c1ccc(F)c(C#N)c1)C(C)C (stereo partly drawn) [IIB-a-17, 4-[19]-Fluoro-3-cyano-benzoyl-Ava-Gln-Trp-Ala-Val-Gly-His-4-Am,S-MeHpA-Leu-NH2] ({Benzoyl(3-CN,4-F)-Ava}-QWAVGH[X1]L-NH2)	1.9 nM
CCC(C)C(CCC(=O)N[C@@H](CC(C)C)C(N)=O)NC(=O)[C@H](Cc1c[nH]cn1)N(C)C(=O)CNC(=O)[C@@H](NC(=O)[C@H](C)NC(=O)[C@H](Cc1c[nH]c2ccccc12)NC(=O)[C@H](CCC(N)=O)NC(=O)CCCCNC(=O)c1ccc(F)c(F)c1)C(C)C (stereo partly drawn) [IIB-a-50, 3,4-[19]Difluorobenzoyl-Ava-Gln-Trp-Ala-Val-Gly-NMeHis-4-Am,5-MeHpA-Leu-NH2] ({Benzoyl(3,4-F2)-Ava}-QWAVG[NMeH][X1]L-NH2)	> 25 nM
CC(C)C[C@H](NC(=O)C[C@@H](O)[C@@H](NC(=O)[C@H](Cc1c[nH]cn1)NC(=O)CN(C)C(=O)[C@@H](NC(=O)[C@H](C)NC(=O)[C@H](Cc1c[nH]c2ccccc12)NC(=O)[C@H](CCC(N)=O)NC(=O)CCCCNC(=O)c1ccc(F)c(F)c1)C(C)C)C(C)C)C(N)=O [IIB-a-51] ({Benzoyl(3,4-F2)-Ava}-QWAV[Sar]H[X3]L-NH2)	> 25 nM
CC(C)C[C@H](NC(=O)[C@H](Cc1ccccc1)NC(=O)[C@H](Cc1c[nH]cn1)N(C)C(=O)CCNC(=O)[C@@H](NC(=O)[C@H](C)NC(=O)[C@H](Cc1c[nH]c2ccccc12)NC(=O)[C@H](CCC(N)=O)NC(=O)CCCCNC(=O)c1ccc(F)c(F)c1)C(C)C)C(N)=O [IIB-a-54] ({Benzoyl(3,4-F2)-Ava}-QWAV[βAla][NMeH]FL-NH2)	0.4 nM
CC(C)C[C@H](NC(=O)[C@H](Cc1ccccc1)NC(=O)[C@@H](Cc1c[nH]cn1)NC(=O)CCNC(=O)[C@@H](NC(=O)[C@H](C)NC(=O)[C@H](Cc1c[nH]c2ccccc12)NC(=O)[C@H](CCC(N)=O)NC(=O)CCCCNC(=O)c1ccc(F)c(F)c1)C(C)C)C(N)=O [IIB-a-55] ({Benzoyl(3,4-F2)-Ava}-QWAV[βAla][dH]FL-NH2)	19 nM

Same assay, conditions: GRPR-containing cell membranes, 125I-[Tyr4]-Bombesin, 90 minutes at room temperature; Table 2, B1 = CO; read-out: Ki

Compound	Ki
CC(C)C[C@@H](CC(=O)N[C@@H](CC(C)C)C(N)=O)NC(=O)[C@H](Cc1c[nH]cn1)NC(=O)CCNC(=O)[C@@H](NC(=O)[C@H](C)NC(=O)[C@H](Cc1c[nH]c2ccccc12)NC(=O)[C@H](CCC(N)=O)NC(=O)CCCCNC(=O)c1ccc(F)c(F)c1)C(C)C [IIB-a-56] ({Benzoyl(3,4-F2)-Ava}-QWAV[βAla]H[β3hL]L-NH2)	45 nM
CC[C@H](C)[C@@H](CC(=O)N[C@@H](CC(C)C)C(N)=O)NC(=O)[C@H](Cc1c[nH]cn1)NC(=O)CCNC(=O)[C@@H](NC(=O)[C@H](C)NC(=O)[C@H](Cc1c[nH]c2ccccc12)NC(=O)[C@H](CCC(N)=O)NC(=O)CCCCNC(=O)c1ccc(F)c(F)c1)C(C)C [IIB-a-57] ({Benzoyl(3,4-F2)-Ava}-QWAV[βAla]H[β3hI]L-NH2)	> 50 nM
CC(C)C[C@@H](CC(=O)N[C@H](C(N)=O)C(C)(C)C)NC(=O)[C@H](Cc1c[nH]cn1)NC(=O)CCNC(=O)[C@@H](NC(=O)[C@H](C)NC(=O)[C@H](Cc1c[nH]c2ccccc12)NC(=O)[C@H](CCC(N)=O)NC(=O)CCCCNC(=O)c1ccc(F)c(F)c1)C(C)C [IIB-a-58] ({Benzoyl(3,4-F2)-Ava}-QWAV[βAla]H[β3hL][Tle]-NH2)	> 50 nM

System: not listed separately
Experiment: human serum stability of the F-18 labeled peptide (HPLC purity)
Assay type: in vitro ADME
Details: 37°C for 90 min, purity assessed by HPLC (phosphate buffer and TFA mobile phases)
Experimental: To qualify for pre-clinical and clinical use, it is necessary to establish the stability of the compound in human serum. The compound a 70 µL of human serum containing the F-18 labeled peptide (5.89 MBq/mL) was incubated at 37°C for 90 min. An aliquot was withdrawn at various intervals and the purity assessed by HPLC. The purity was evaluated in under two different conditions. Potassium hydrogen phosphate buffer system was used as a mobile phase to measure the stability of attached F-18 label. Column: C-18, Gradient: A: 10mM K2HPO4 pH:9,04; B: 10mM K2HPO4 pH:9,04/ACN 3/ 7; Flow rate: 2 mL, 5% A to 95% B in 7 min. [formula] [formula] [formula]
Trifluoroacetic acid system was used as a mobile phase to measure the stability of the entire molecule. Column: C-18, Gradient: A: 10% CH3CN: 90% H2O, B:90% CH3CN: 10% H2O containing 0.1 % TFA. [formula] [formula] [formula]

Compound	stability in human serum
4-[18]Fluoro-3-cyano-benzoyl-Arg-Ava-Gln-Trp-Ala-Val-NMeGly-His-Sta-Leu-NH2 [IIA-a-1]	stable in human serum
